Source: paper PMC7377239, “Cardiovascular Effects of Polychlorinated Biphenyls and Their Major Metabolites” (Environmental Health Perspectives, 2020)
Counter-ions that a name gives are not always drawn. Like-named read-outs stand apart in the source and are kept apart here.

Columns and labels:
HUVECs = assay: Tube formation (tubulogenesis) assay in HUVECs, 18 h; format: cell-based, human; settings: Homo sapiens, HUVEC, 18 h, HUVECs; for activity at 0.1 µM: 0.10 µM; for minimal effective concentration: top concentration 100.00 µM
Summary of the method: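 HUVECs (passage 1–5) seeded on reduced-growth-factor basement membrane and exposed to compounds overnight at 37°C, 5% CO2, in 2× maintenance medium with 12.5 ng/mL VEGF; 0.5% DMSO vehicle. Calcein AM-stained tube networks imaged and analysed; vehicle-normalized readouts fit to four-parameter logistic, POD set at one SD of vehicle means.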

[1] = tested on: iCell endothelial cells (human iPSC-derived ECs); assay: High-content imaging cytotoxicity in iCell endothelial cells, 24 h; format: cell-based; settings: Homo sapiens, Endothelial cell, iPSC-EC, 24 hr; for viability at 0.1 µM / activity at 0.1 µM: 0.10 µM; for minimal effective concentration: top concentration 100.00 µM
Summary of the method: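 Human iPSC-derived endothelial cells (passages 1–5) were grown to a fibronectin-coated monolayer, then exposed 24 h at 37 °C with 0.5% DMSO vehicle. Staining was Hoechst 33342, MitoTracker Orange and calcein AM, read by high-content imaging. Point of departure came from 4-parameter logistic fits, with a 1-SD vehicle cutoff and 100 µM as the top concentration.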

[2] = 0.00 µM = 100.00, read-out: huvec.mtl.18hr
[3] = 0.00 µM = 100.00, read-out: huvec.tlps.18hr
[4] = 0.00 µM = 100.00, read-out: huvec.tta.18hr
[5] = 0.00 µM = 100.00, read-out: huvec.ttl.18hr
[6] = 0.00 µM control = 100.00, read-out: endo.cyto.24hr
[7] = 0.00 µM control = 100.00, read-out: endo.mito.24hr
[8] = 0.00 µM control = 100.00, read-out: endo.mitoint.24hr
[9] = 0.00 µM control = 100.00, read-out: endo.nma.24hr
[10] = 0.00 µM control = 100.00, read-out: endo.tc.24hrs

`O=S(=O)(O)Oc1ccc(-c2ccc(Cl)cc2)cc1` [4'-yl PCB 3 sulfate] gave an activity at 0.01 µM (HUVECs; [2]) of 107%, an activity at 0.01 µM (HUVECs; [3]) of 166% and an activity at 0.01 µM (HUVECs; [4]) of 116%. For the same compound, the activity at 0.01 µM (HUVECs; [5]) was 109%, the activity at 0.1 µM (HUVECs; [2]) was 106% and the activity at 0.1 µM (HUVECs; [3]) was 138%. It also gave an activity at 0.1 µM (HUVECs; [4]) of 140%, an activity at 0.1 µM (HUVECs; [5]) of 133% and an activity at 1 µM (HUVECs; [2]) of 117%. The activity at 1 µM (HUVECs; [3]) was 173%, the activity at 1 µM (HUVECs; [4]) was 125% and the activity at 1 µM (HUVECs; [5]) was 123%. The activity at 10 µM (HUVECs; [2]) was 93%, the activity at 10 µM (HUVECs; [3]) was 102% and the activity at 10 µM (HUVECs; [4]) was 93.4%. The activity at 10 µM (HUVECs; [5]) was 88.6%, the activity at 100 µM (HUVECs; [2]) was 57.3% and the activity at 100 µM (HUVECs; [3]) was 38.9%. For the same compound, the activity at 100 µM (HUVECs; [4]) was 53.2%, the activity at 100 µM (HUVECs; [5]) was 59.7% and the minimal effective concentration (HUVECs; read-out: huvec.mtl.18hr POD) was 11.2 µM. For the same compound, the minimal effective concentration (HUVECs; read-out: huvec.tlps.18hr POD) was 100 µM, the minimal effective concentration (HUVECs; read-out: huvec.tta.18hr POD) was 25.4 µM and the minimal effective concentration (HUVECs; read-out: huvec.ttl.18hr POD) was 100 µM. The viability at 0.01 µM [1, 6] was 101%, the activity at 0.01 µM [1, 7] was 101% and the activity at 0.01 µM [1, 8] was 114%. For the same compound, the activity at 0.01 µM [1, 9] was 99.9%, the viability at 0.01 µM [1, 10] was 101% and the viability at 0.1 µM [1, 6] was 101%. For the same compound, the activity at 0.1 µM [1, 7] was 101%, the activity at 0.1 µM [1, 8] was 103% and the activity at 0.1 µM [1, 9] was 99.6%. For the same compound, the viability at 0.1 µM [1, 10] was 101%, the viability at 1 µM [1, 6] was 101% and the activity at 1 µM [1, 7] was 101%. The activity at 1 µM [1, 8] was 100%, the activity at 1 µM [1, 9] was 98.8% and the viability at 1 µM [1, 10] was 101%. It also gave a viability at 10 µM [1, 6] of 101%, an activity at 10 µM [1, 7] of 102% and an activity at 10 µM [1, 8] of 98%. The activity at 10 µM [1, 9] was 98.8%, the viability at 10 µM [1, 10] was 101% and the viability at 100 µM [1, 6] was 91.5%. For the same compound, the activity at 100 µM [1, 7] was 91.9%, the activity at 100 µM [1, 8] was 106% and the activity at 100 µM [1, 9] was 104%. For the same compound, the viability at 100 µM [1, 10] was 91.5%, the minimal effective concentration ([1]; read-out: endo.cyto.24hr POD) was 100 µM and the minimal effective concentration ([1]; read-out: endo.mito.24hr POD) was 100 µM. For the same compound, the minimal effective concentration ([1]; read-out: endo.mitoint.24hr POD) was 100 µM, the minimal effective concentration ([1]; read-out: endo.nma.24hr POD) was 100 µM and the minimal effective concentration ([1]; read-out: endo.tc.24hrs POD) was 100 µM.
